Source: paper PMC7316778 (Nature Communications, 2020)
Where two headings read alike, the source gives them in different places.

Key:
Experiment in all cases: SelectScreen kinase assay
ABL2 (Arg) = ABL2 (Arg) (Homo sapiens, UniProt P42684); settings: for Inhibition at 1 µM (%): ABL2 (Arg), ZLYTE, ATP Km app
Protocol: (§1) Selectivity profiling assays were performed by the Invitrogen SelectScreen™ Services. […] The concentration of ATP was selected to be equal to the KM, unless indicated otherwise.

CASK = target: T1, CASK (Homo sapiens, UniProt O14936); settings: for Inhibition at 1 µM (%): CASK, LanthaScreen Binding
T1 sequence (O14936 1-926): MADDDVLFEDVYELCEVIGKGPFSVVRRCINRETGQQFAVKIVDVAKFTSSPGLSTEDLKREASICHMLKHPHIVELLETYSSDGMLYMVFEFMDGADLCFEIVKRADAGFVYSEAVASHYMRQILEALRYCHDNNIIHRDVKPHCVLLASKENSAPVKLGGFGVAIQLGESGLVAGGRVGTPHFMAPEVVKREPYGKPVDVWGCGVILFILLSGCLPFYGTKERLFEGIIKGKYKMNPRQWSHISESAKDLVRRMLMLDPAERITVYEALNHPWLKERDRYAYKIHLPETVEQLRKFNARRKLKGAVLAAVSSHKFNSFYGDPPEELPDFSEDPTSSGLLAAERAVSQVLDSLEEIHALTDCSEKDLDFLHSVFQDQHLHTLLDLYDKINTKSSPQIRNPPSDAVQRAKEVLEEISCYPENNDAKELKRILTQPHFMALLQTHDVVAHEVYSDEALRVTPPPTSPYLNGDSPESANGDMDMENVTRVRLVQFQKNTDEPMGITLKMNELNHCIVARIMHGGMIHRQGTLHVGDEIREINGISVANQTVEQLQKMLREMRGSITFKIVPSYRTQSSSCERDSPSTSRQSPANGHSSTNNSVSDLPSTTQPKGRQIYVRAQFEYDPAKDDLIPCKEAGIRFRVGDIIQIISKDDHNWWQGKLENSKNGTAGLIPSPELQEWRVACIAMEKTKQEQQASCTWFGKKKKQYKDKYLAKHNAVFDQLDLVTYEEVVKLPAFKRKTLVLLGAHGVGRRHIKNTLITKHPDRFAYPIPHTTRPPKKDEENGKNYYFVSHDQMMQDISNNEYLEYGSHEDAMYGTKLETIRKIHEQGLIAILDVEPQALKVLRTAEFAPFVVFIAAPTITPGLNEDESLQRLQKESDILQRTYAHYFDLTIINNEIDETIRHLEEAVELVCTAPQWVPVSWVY
Protocol: as §1

CHEK2 (CHK2) = CHEK2 (CHK2) (Homo sapiens, UniProt O96017)
Protocol: as §1

DYRK1A = DYRK1A (Homo sapiens, UniProt Q13627); settings: for Inhibition at 1 µM (%): DYRK1A, ZLYTE, ATP Km app
Protocol: as §1

EPHB3 = target: T2, EPHB3 (Homo sapiens, UniProt P54753); settings: for Inhibition at 1 µM (%): EPHB3, ZLYTE, ATP Km app
T2 sequence (P54753 34-998): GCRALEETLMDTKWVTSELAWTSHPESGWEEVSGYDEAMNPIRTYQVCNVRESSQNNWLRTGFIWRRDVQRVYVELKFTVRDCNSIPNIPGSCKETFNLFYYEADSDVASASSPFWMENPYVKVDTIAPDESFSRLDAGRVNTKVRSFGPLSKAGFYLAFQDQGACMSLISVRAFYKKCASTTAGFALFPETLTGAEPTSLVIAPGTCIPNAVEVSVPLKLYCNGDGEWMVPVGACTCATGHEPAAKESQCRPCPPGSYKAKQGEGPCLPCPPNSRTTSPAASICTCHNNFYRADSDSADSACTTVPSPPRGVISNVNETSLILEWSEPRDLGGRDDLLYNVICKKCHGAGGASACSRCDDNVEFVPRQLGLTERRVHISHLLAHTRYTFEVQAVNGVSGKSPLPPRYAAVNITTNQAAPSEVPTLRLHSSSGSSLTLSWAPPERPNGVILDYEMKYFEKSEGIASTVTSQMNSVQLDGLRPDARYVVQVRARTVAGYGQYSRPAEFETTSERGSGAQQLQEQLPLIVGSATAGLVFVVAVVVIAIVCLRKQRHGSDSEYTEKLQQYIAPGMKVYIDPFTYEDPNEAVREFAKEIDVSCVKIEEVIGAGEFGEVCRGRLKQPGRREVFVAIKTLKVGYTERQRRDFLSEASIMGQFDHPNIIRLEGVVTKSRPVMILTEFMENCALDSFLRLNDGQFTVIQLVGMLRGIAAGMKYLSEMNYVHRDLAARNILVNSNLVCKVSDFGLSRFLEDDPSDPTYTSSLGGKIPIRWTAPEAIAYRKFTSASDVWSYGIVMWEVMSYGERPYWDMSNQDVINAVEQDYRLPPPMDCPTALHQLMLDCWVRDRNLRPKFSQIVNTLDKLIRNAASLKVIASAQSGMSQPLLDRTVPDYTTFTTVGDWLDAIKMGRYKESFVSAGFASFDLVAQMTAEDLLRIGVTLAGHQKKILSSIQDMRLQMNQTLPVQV
Protocol: as §1

HCK = HCK (Homo sapiens, UniProt P08631)
Sequence of HCK (P08631 whole entry): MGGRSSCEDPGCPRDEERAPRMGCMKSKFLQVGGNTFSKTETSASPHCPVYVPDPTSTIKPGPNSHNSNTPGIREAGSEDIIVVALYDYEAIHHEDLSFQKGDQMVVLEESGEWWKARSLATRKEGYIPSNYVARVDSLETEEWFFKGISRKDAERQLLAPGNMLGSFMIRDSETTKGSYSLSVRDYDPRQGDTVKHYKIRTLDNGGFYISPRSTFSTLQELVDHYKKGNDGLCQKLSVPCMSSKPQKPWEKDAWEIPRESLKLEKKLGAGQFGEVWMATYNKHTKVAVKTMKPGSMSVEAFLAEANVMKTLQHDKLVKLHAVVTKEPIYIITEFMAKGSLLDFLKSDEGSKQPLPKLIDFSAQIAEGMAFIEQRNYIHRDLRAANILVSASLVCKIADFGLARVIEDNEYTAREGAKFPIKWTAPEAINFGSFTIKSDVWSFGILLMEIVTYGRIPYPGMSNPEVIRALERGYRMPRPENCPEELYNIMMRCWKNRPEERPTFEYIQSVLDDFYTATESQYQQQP
Protocol: as §1

PRKG2 (PKG2) = PRKG2 (PKG2) (Homo sapiens, UniProt Q13237)
Protocol: as §1

STK16 (PKL12) = STK16 (PKL12) (Homo sapiens, UniProt O75716)
Sequence of STK16 (PKL12) (O75716 whole entry): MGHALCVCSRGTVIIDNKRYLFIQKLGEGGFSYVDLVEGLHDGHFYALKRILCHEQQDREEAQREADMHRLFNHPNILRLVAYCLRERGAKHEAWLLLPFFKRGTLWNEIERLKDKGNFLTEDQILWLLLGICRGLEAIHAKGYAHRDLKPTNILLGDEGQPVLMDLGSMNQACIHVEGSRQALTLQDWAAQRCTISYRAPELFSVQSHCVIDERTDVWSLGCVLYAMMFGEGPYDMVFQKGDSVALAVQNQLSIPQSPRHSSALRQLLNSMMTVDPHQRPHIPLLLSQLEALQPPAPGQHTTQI
Protocol: as §1

STK24 (MST3) = STK24 (MST3) (Homo sapiens, UniProt Q9Y6E0)
Sequence of STK24 (MST3) (Q9Y6E0 whole entry): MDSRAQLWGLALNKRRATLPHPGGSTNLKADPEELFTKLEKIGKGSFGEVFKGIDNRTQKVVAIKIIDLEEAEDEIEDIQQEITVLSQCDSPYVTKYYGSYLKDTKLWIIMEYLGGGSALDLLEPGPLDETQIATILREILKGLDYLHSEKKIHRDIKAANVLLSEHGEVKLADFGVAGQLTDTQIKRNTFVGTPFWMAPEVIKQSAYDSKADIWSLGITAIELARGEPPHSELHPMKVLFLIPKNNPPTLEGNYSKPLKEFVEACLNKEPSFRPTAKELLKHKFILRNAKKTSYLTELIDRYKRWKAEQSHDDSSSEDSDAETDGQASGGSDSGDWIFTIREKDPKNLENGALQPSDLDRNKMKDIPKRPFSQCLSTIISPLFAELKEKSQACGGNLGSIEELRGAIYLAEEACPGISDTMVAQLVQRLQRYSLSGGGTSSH
Protocol: as §1

WEE1 = WEE1 (Homo sapiens, UniProt P30291)
Protocol: as §1

WNK2 = WNK2 (Homo sapiens, UniProt Q9Y3S1)
Sequence of WNK2 (Q9Y3S1 whole entry): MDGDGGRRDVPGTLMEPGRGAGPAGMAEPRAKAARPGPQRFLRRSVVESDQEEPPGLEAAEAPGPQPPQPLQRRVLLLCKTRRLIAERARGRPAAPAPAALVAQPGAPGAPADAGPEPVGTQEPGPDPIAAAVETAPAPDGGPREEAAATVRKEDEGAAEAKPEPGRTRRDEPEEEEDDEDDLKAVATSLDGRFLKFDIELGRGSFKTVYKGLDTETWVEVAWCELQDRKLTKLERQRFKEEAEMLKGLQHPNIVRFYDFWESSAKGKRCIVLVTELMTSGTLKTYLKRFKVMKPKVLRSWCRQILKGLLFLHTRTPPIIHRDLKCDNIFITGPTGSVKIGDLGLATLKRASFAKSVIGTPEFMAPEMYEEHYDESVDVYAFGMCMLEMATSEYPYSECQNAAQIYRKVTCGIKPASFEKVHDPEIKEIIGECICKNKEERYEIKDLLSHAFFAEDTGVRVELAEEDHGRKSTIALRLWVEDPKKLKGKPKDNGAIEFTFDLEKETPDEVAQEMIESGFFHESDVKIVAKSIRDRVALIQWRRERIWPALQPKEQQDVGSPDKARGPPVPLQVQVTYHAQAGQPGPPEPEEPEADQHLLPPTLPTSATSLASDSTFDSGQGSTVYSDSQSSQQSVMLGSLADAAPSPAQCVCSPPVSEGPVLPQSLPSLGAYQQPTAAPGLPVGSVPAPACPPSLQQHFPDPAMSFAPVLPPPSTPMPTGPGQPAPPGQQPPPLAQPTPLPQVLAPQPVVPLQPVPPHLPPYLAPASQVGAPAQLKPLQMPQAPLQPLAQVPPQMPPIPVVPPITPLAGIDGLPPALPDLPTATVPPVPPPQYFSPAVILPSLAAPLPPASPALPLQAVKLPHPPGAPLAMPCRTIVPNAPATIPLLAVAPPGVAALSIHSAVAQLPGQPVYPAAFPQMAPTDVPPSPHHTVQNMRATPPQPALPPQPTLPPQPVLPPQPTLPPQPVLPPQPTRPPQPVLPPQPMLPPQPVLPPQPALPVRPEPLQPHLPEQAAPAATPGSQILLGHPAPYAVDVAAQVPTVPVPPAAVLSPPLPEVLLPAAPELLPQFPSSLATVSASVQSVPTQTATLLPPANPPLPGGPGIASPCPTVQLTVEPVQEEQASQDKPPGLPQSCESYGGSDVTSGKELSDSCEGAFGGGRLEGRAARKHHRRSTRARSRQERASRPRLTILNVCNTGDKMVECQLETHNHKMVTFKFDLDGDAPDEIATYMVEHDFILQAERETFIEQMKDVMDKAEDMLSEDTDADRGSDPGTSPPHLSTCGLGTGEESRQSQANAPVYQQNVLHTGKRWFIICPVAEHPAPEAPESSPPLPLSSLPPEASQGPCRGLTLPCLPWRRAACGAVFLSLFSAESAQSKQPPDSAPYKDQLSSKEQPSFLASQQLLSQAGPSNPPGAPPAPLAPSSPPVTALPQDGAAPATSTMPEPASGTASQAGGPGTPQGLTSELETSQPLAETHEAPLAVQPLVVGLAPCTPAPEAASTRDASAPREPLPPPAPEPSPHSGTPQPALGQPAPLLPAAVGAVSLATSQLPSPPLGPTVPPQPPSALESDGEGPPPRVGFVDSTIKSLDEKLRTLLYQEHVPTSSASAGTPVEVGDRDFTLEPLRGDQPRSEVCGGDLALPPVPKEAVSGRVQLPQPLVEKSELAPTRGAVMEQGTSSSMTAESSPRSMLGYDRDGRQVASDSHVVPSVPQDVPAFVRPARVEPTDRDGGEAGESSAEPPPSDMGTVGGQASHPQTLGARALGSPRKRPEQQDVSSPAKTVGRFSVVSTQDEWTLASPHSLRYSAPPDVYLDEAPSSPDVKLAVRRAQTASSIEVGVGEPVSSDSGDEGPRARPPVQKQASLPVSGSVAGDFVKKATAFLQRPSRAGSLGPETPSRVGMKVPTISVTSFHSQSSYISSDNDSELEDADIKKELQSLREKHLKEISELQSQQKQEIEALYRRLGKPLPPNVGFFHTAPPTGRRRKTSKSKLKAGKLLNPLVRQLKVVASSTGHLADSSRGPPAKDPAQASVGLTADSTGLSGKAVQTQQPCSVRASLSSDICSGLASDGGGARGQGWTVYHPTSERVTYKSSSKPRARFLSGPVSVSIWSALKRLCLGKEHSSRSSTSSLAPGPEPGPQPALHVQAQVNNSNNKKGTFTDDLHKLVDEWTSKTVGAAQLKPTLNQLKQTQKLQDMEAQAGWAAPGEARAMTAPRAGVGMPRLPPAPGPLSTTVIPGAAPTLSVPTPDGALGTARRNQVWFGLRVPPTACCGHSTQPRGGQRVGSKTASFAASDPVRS
Protocol: as §1

ZAP70 = ZAP70 (Homo sapiens, UniProt P43403); settings: 1 h, 1 μM WEL028, 1 h preincubation
Protocol: as §1

[1] = 1 h, 1 μM WEL028, 1 h preincubation
[2] = 1 µM, LanthaScreen Binding, listed as WEL028, 1 µM
[3] = read-out: Inhibition at 1 µM (%), 1 µM, LanthaScreen Binding

Sequence of ABL2 (Arg) (P42684 whole entry): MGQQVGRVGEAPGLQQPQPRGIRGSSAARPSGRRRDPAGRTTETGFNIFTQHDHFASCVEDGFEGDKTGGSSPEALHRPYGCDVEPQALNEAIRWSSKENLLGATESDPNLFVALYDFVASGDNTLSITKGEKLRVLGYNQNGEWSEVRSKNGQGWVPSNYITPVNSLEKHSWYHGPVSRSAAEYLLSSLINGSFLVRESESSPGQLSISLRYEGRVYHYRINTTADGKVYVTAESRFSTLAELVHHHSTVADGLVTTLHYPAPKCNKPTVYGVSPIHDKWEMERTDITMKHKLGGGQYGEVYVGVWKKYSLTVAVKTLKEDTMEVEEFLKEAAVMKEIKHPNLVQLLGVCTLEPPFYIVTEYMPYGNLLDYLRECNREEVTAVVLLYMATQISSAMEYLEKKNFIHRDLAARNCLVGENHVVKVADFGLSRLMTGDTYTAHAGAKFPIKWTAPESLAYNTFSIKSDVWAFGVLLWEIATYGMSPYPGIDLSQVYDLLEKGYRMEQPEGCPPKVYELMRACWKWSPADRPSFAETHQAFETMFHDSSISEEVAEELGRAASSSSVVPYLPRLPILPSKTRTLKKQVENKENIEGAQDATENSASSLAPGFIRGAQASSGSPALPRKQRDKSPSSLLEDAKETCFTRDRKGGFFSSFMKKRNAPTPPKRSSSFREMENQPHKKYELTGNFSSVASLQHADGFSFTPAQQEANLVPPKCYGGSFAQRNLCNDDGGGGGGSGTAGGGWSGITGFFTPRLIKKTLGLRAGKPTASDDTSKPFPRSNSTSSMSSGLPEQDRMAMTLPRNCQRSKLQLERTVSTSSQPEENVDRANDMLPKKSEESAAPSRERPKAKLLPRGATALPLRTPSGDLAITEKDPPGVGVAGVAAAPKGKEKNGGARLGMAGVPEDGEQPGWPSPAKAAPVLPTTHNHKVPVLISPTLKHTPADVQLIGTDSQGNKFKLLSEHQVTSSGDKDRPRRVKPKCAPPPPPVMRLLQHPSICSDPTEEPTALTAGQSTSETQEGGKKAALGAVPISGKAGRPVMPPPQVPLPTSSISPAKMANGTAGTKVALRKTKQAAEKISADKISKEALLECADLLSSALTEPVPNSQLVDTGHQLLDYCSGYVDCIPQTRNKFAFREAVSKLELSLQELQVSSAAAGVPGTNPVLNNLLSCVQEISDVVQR

C#CCOc1ccc(Nc2ncc(Cl)c(Nc3ccccc3NC(=O)C=C)n2)c(OC)c1 [Compound 6]
inhibition at 1 µM (ABL2 (Arg); [1]): -5%
Inhibition at 1 µM (%) (ABL2 (Arg)): -2%
Inhibition at 1 µM (%) (ABL2 (Arg); listed as WEL028, 1 µM): -9%
inhibition at 1 µM (CASK; [1]): -7%
Inhibition at 1 µM (%) (CASK): -11%
Inhibition at 1 µM (%) (CASK; listed as WEL028, 1 µM): -4%
inhibition at 1 µM (CHEK2 (CHK2); [1]): 4%
Inhibition at 1 µM (%) (CHEK2 (CHK2); CHEK2 (CHK2), 1 µM, ZLYTE, ATP Km app): 14%
inhibition at 1 µM (DYRK1A; [1]): 1%
Inhibition at 1 µM (%) (DYRK1A): 3%
Inhibition at 1 µM (%) (DYRK1A; listed as WEL028, 1 µM): 0%
inhibition at 1 µM (EPHB3; [1]): 1%
Inhibition at 1 µM (%) (EPHB3): 2%
Inhibition at 1 µM (%) (EPHB3; listed as WEL028, 1 µM): 0%
inhibition at 1 µM (HCK; [1]): 6%
Inhibition at 1 µM (%) (HCK; HCK, 1 µM, ZLYTE, ATP Km app, listed as WEL028, 1 µM): 7%
inhibition at 1 µM (HCK; read-out: Inhibition at 1 µM (%), HCK, 1 µM, ZLYTE, ATP Km app): 4%
Inhibition at 1 µM (%) (PRKG2 (PKG2); 1 µM, ZLYTE, ATP Km app): 13%
inhibition at 1 µM (PRKG2 (PKG2); [1]): 4%
Inhibition at 1 µM (%) (STK16 (PKL12); [2]): 29%
inhibition at 1 µM (STK16 (PKL12); [1]): 32%
inhibition at 1 µM (STK16 (PKL12); [3]): 35%
Inhibition (%) (STK24 (MST3); 1 μM WEL028, 1 h preincubation): 12%
Inhibition at 1 µM (%) (STK24 (MST3); 1 µM, ZLYTE, ATP Km app, listed as WEL028, 1 µM): 15%
inhibition at 1 µM (STK24 (MST3); read-out: Inhibition at 1 µM (%), 1 µM, ZLYTE, ATP Km app): 9%
Inhibition at 1 µM (%) (WEE1; 1 µM, LanthaScreen Binding): -14%
inhibition at 1 µM (WEE1; [1]): -5%
Inhibition at 1 µM (%) (WNK2; [2]): 4%
inhibition at 1 µM (WNK2; [1]): 5%
inhibition at 1 µM (WNK2; [3]): 5%
inhibition at 1 µM (ZAP70): 2%
